{
  "source": "patent US11331298B2",
  "about": "“Powder solid dispersions comprising quercetin, process for their preparation and formulations thereof” (INDENA S.P.A., priority 2017, dated 2022)",
  "key": {"[1]": {"experiment": "Solubility studies in simulated gastro-intestinal fluids", "type": "physicochemical", "details": "excess analyte, magnetic stirring 2 hours, HPLC", "description": "Quercetin dihydrate, quercetin powder solid dispersion obtained in Example 1 and a mechanical (physical) mixture of the component of the said solid dispersion were subjected to comparative solubility experiments, in the presence of high excess of analyte, using the following simulated gastro-intestinal fluids: • fasted state simulated gastric fluid; • fasted state simulated intestinal fluid; • fed state simulated intestinal fluid.\nEquivalent amounts of quercetin were used during the experiments. Quercetin dihydrate, quercetin powder solid dispersion of Example 1 and the mechanical (physical) mixture were kept under magnetic stirring for 2 hours. The supernatant was filtered and the quercetin concentration was calculated by HPLC analysis."}, "[2]": {"experiment": "Single dose randomized, crossover pharmacokinetic study in healthy volunteers", "type": "in vivo, human", "details": "fasting, single oral dose, 500 mg film-coated tablets, mean", "description": "A single dose randomized, crossover pharmacokinetic study in healthy volunteers under fasting conditions was performed using film-coated tablets containing 500 mg of (unformulated) quercetin dihydrate, 500 mg of quercetin (40%) powder solid dispersion (corresponding to 200 mg of quercetin dihydrate) and 250 mg of quercetin (40%) powder solid dispersion (corresponding to 100 mg of quercetin dihydrate)."}},
  "data": [
    {"smiles": "O=c1c(O)c(-c2ccc(O)c(O)c2)oc2cc(O)cc(O)c12", "note": "[Quercetin dihydrate, 2-(3,4-Dihydroxyphenyl)-3,5,7-trihydroxy-4H-chromen-4-one]", "values": [
      {"measurement": "Quercetin concentration (solubility)", "setting": "[1]; Fasted state simulated gastric fluid (pH 1.6)", "result": "<LOD"},
      {"measurement": "Quercetin concentration (solubility)", "setting": "[1]; Fasted state simulated intestinal fluid (pH 6.5)", "result": 7.5, "unit": "µg/mL"},
      {"measurement": "Quercetin concentration (solubility)", "setting": "[1]; Fed state simulated intestinal fluid (pH 5.0)", "result": 19.1, "unit": "µg/mL"},
      {"measurement": "Cmax", "setting": "[2]", "result": 10.93, "unit": "ng/mL"},
      {"measurement": "AUC(0-inf)", "setting": "[2]; human, in vivo", "result": 90.1, "unit": "ng·h/mL"}
    ]}
  ]
}
